This is an account of results in publication PMC10989073, “Antineoplastic effect of compounds C14 and P8 on TNBC and radioresistant TNBC cells by stabilizing the K-Ras4B^G13D/PDE6δ complex” (Frontiers in Oncology, 2024).

The nature of series [1]: Apoptosis/necrosis assay (Annexin V–propidium iodide, flow cytometry). It counts as cell-based, human. Conditions: human, MCF-10A cells, 24 h at IC50-24, flow cytometry. The method, then: Apoptosis and necrosis were determined using the Apoptosis/Necrosis Detection kit (Abcam, Cambridge, UK) according to the manufacturer’s instructions. In brief, approximately 500,000 cells were seeded in 6-well plates (Corning) for 24 h. […] Cells were harvested and collected by centrifugation. All the samples were analyzed in triplicate using flow cytometry equipment FACSCalibur instrument (BD Biosciences, San Jose, CA, USA) at […] and 575-nm emission. Data analysis was performed using the FlowJo software (Tree Star Inc., Ashland, OR, USA). All experiments were performed in triplicate.
A general note: In flow cytometry, cells or beads pass a laser one at a time.

For another series, the system named is MDA-MB-231 cells. Description: XTT cell viability assay and IC50 determination. It counts as cell-based, human. To be noted: for IC50: XTT, ± SD; for concentration from which a significant cytotoxic effect is seen: compared to vehicle (DMSO). The method, then:
In order to evaluate the effect of the C14 and P8 compounds over MCF-10A, MCF-7, MDA-MB-231, and […] cell lines, the IC50 of those molecules was determined. In brief, all the cell lines were seeded at a density of 15,000 cells per well in a 96-well microtiter plate (Corning) in a corresponding growth medium for 24 h. Then, cells were treated with increasing concentrations (from 0 to 200 μM) of the C14 and P8 compounds (Enamine, Kyiv, Ukraine). As a positive control, increased concentrations of cisplatin (from 0 to 200 µM) (Accord, Mexico City, Mexico) were employed. Due to that, dimethyl sulfoxide (DMSO) was used as a vehicle, and its increased concentrations were evaluated as the negative control. All the samples were maintained under growth conditions for 24 h and 48 h. At the end of each time, cell viability was determined using the XTT Cell Proliferation Kit II (Roche Applied Science, Mannheim, Germany) following the manufacturer’s protocol. The absorbance was measured in a spectrophotometer Synergy-HTX (BioTek) at a wavelength of 450–500 nm with a reference wavelength of 650 nm. Cell proliferation was expressed as a percentage of viability [(absorbance of treated cells/absorbance of untreated cells × 100)] ± SD.

As usually defined, the viability is a read-out of living cells in per cent, often relative to untreated cells. The low end stands for a greater loss of cells, the high end for better survival. As a reminder, the IC50 is the concentration needed to halve the response being measured.

Like-named read-outs stand apart in the source and are kept apart here.

As for `O=C(CN1CCN(c2cccc(Cl)c2)CC1)N[C@@H]1CCOc2ccccc21` [P8, 2-[4-(3-chlorophenyl)piperazin-1-yl]-N-[(4R)-chroman-4-yl]acetamide], the viability at 24 h in series [1] is 94.3%. Also, the concentration for half-maximal inhibition (IC50) in the series with MDA-MB-231 cells (Homo sapiens, MDA-MB-231, 24 h, read-out: IC50-24) was determined as 140 ± 33.5 µM; in the series on MDA-MB-231 cells (Homo sapiens, MDA-MB-231, 48 h, read-out: IC50-48), 63.2 ± 10.6 µM. In addition, the “concentration from which a significant cytotoxic effect is seen” value with MDA-MB-231 cells (MDA-MB-231, 48 h) is at least 10 µM.
Consider `CN(CC(=O)NC1CCOc2ccccc21)Cc1cccc(Cl)c1` (stereo not shown) [C14, 2-[(3-chlorophenyl)-methyl-methyl-amino]-N-croman-4-yl-acetamide], for which the half-maximal inhibitory concentration (IC50) in the series on MDA-MB-231 cells (MDA-MB-231, 24 h, read-out: IC50-24) stood at 91.1 ± 3.9 µM; in the series on MDA-MB-231 cells (MDA-MB-231, 48 h, read-out: IC50-48), 60 ± 6.6 µM. Moreover, the “concentration from which a significant cytotoxic effect is seen” value with MDA-MB-231 cells (MDA-MB-231, 48 h) is at least 10 µM.
